In US11077090B2, “Compounds and compositions and uses thereof” (Sunovion Pharmaceuticals Inc., priority 2016, dated 2021):

What follows are compounds tested on compound-treated mice (assay: Neuropharmacological assay (SmartCube): behavioral activity signature and minimal effective dose). Conditions: Mus musculus, ip, MED = dose having 50% or more total activity, read-out: Potency: minimal effective dose (MED).
Assay type: in vivo
How it was run: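 Video-recorded behavior is compared algorithmically against a reference-compound database, yielding class probabilities (best dose reported). Compounds given i.p. in NMP/PEG/propylene glycol 15 min pre-test at 3 doses; potency as MED, the dose (mpk, range usually 0.3–30) reaching ≥50% total activity.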
Work on `CN(C)C1COCc2ccccc21.Cl` (stereo not drawn) [Example 60, N,N-dimethylisochroman-4-amine hydrochloride] yielded a minimal effective dose of 10 to 30 mg/kg.
Compound `Cc1ccc2c(c1C)C(N(C)C)COC2.Cl` (stereo not drawn) [Example 61] has a minimal effective dose of 10 to 30 mg/kg.
In the case of `Cc1ccc2c(c1)C(N(C)C)CCOC2.Cl` (stereo not drawn) [Example 62], the minimal effective dose is reported as 3 to 10 mg/kg.
`Cc1ccc2c(c1)C(N)C(C)(C)COC2.Cl` (stereo not drawn) [Example 63, 4,4,7-Trimethyl-1,3,4,5-tetrahydrobenzo[c]oxepin-5-amine hydrochloride] showed a minimal effective dose of 10 to 30 mg/kg.
`CC1(N)COCc2ccc(F)cc21.Cl` (stereo not drawn) [Example 68, 6-Fluoro-4-methylisochroman-4-amine hydrochloride] was tested, and the minimal effective dose was 10 to 30 mg/kg.
For `Cc1ccc2c(c1C)[C@H](N)[C@H](C)OC2.Cl` [Example 78], the minimal effective dose was 3 to 10 mg/kg.
`Cc1ccc2c(c1C)[C@H](N)[C@@H](C)OC2.Cl` [Example 79] showed a minimal effective dose of 3 to 10 mg/kg.
For `C[C@@H]1OCc2cccc(Cl)c2[C@@H]1N.Cl` [Example 80], the minimal effective dose was < 3 mg/kg.
`C[C@H]1OCc2cccc(Cl)c2[C@@H]1N.Cl` [Example 81] was tested, and the minimal effective dose was < 3 mg/kg.

Same assay, conditions: i.p. 15 min before test, most efficacious dose(s)
For `CN(C)C1COCc2ccccc21.Cl` (stereo not drawn) [Example 60, N,N-dimethylisochroman-4-amine hydrochloride], the “AD: ADHD (probability of activity signature)” value (from here on “AD: ADHD”) was “+ (LOQ ≤ + <5%)”, the “AG: analgesic (probability of activity signature)” value (shortened to “AG: analgesic”) was “++ (5% ≤ ++ <25%)” and the “AX: anxiolytic (probability of activity signature)” value (“AX: anxiolytic” for short) was “+++ (25% ≤ +++ <50%)”. For the same compound, the “CE: cognitive enhancer (probability of activity signature)” value (“CE: cognitive enhancer” for short) was “++ (5% ≤ ++ <25%)”, the “DP: anti-depressant (probability of activity signature)” value (“DP: anti-depressant” for short) was “++ (5% ≤ ++ <25%)” and the “MS: mood stabilizer (probability of activity signature)” value (from here on “MS: mood stabilizer”) was “+ (LOQ ≤ + <5%)”. The “PS: anti-psychotic (probability of activity signature)” value (from here on “PS: anti-psychotic”) was “++ (5% ≤ ++ <25%)”, the “SD: sedative hypnotic (probability of activity signature)” value (“SD: sedative hypnotic” for short) was “+ (LOQ ≤ + <5%)” and the “UN: uncharacterized CNS activity (probability of activity signature)” value (“UN: uncharacterized CNS activity” below) was “+ (LOQ ≤ + <5%)”.
`Cc1ccc2c(c1C)C(N(C)C)COC2.Cl` (stereo not drawn) [Example 61] was tested, and the “AD: ADHD” value was “+ (LOQ ≤ + <5%)”, the “AG: analgesic” value was “++ (5% ≤ ++ <25%)” and the “AX: anxiolytic” value was “++ (5% ≤ ++ <25%)”. For the same compound, the “CE: cognitive enhancer” value was “++ (5% ≤ ++ <25%)”, the “DP: anti-depressant” value was “+ (LOQ ≤ + <5%)” and the “MS: mood stabilizer” value was “+ (LOQ ≤ + <5%)”. The “PS: anti-psychotic” value was “++ (5% ≤ ++ <25%)”, the “SD: sedative hypnotic” value was “+ (LOQ ≤ + <5%)” and the “UN: uncharacterized CNS activity” value was “++++ (50% ≤ ++++)”.
`Cc1ccc2c(c1)C(N(C)C)CCOC2.Cl` (stereo not drawn) [Example 62] was tested, and the “AD: ADHD” value was “+ (LOQ ≤ + <5%)”, the “AG: analgesic” value was “++ (5% ≤ ++ <25%)” and the “AX: anxiolytic” value was “++ (5% ≤ ++ <25%)”. For the same compound, the “CE: cognitive enhancer” value was “+++ (25% ≤ +++ <50%)”, the “DP: anti-depressant” value was “++ (5% ≤ ++ <25%)” and the “MS: mood stabilizer” value was “++ (5% ≤ ++ <25%)”. The “PS: anti-psychotic” value was “++ (5% ≤ ++ <25%)”, the “SD: sedative hypnotic” value was “+ (LOQ ≤ + <5%)” and the “UN: uncharacterized CNS activity” value was “++++ (50% ≤ ++++)”.
In the case of `Cc1ccc2c(c1)C(N)C(C)(C)COC2.Cl` (stereo not drawn) [Example 63, 4,4,7-Trimethyl-1,3,4,5-tetrahydrobenzo[c]oxepin-5-amine hydrochloride], the “AD: ADHD” value is reported as “+ (LOQ ≤ + <5%)”, the “AG: analgesic” value is reported as “++ (5% ≤ ++ <25%)” and the “AX: anxiolytic” value is reported as “++ (5% ≤ ++ <25%)”. The “CE: cognitive enhancer” value was “++ (5% ≤ ++ <25%)”, the “DP: anti-depressant” value was “++ (5% ≤ ++ <25%)” and the “MS: mood stabilizer” value was “+ (LOQ ≤ + <5%)”. The “PS: anti-psychotic” value was “+ (LOQ ≤ + <5%)”, the “SD: sedative hypnotic” value was “+ (LOQ ≤ + <5%)” and the “UN: uncharacterized CNS activity” value was “++ (5% ≤ ++ <25%)”.
In the case of `CC1(N)COCc2ccc(F)cc21.Cl` (stereo not drawn) [Example 68, 6-Fluoro-4-methylisochroman-4-amine hydrochloride], the “AD: ADHD” value is reported as “+ (LOQ ≤ + <5%)”, the “AG: analgesic” value is reported as “++ (5% ≤ ++ <25%)” and the “AX: anxiolytic” value is reported as “++ (5% ≤ ++ <25%)”. The “CE: cognitive enhancer” value was “++ (5% ≤ ++ <25%)”, the “DP: anti-depressant” value was “++ (5% ≤ ++ <25%)” and the “MS: mood stabilizer” value was “+ (LOQ ≤ + <5%)”. The “PS: anti-psychotic” value was “++ (5% ≤ ++ <25%)”, the “SD: sedative hypnotic” value was “+ (LOQ ≤ + <5%)” and the “UN: uncharacterized CNS activity” value was “++ (5% ≤ ++ <25%)”.
For `Cc1ccc2c(c1C)[C@H](N)[C@H](C)OC2.Cl` [Example 78], the “AD: ADHD” value was “+ (LOQ ≤ + <5%)”, the “AG: analgesic” value was “++ (5% ≤ ++ <25%)” and the “AX: anxiolytic” value was “++ (5% ≤ ++ <25%)”. For the same compound, the “CE: cognitive enhancer” value was “++ (5% ≤ ++ <25%)”, the “DP: anti-depressant” value was “++ (5% ≤ ++ <25%)” and the “MS: mood stabilizer” value was “+ (LOQ ≤ + <5%)”. For the same compound, the “PS: anti-psychotic” value was “+++ (25% ≤ +++ <50%)”, the “SD: sedative hypnotic” value was “+ (LOQ ≤ + <5%)” and the “UN: uncharacterized CNS activity” value was “++++ (50% ≤ ++++)”.
With `Cc1ccc2c(c1C)[C@H](N)[C@@H](C)OC2.Cl` [Example 79] the “AD: ADHD” value was “+ (LOQ ≤ + <5%)”, the “AG: analgesic” value was “++ (5% ≤ ++ <25%)” and the “AX: anxiolytic” value was “+++ (25% ≤ +++ <50%)”. The “CE: cognitive enhancer” value was “++ (5% ≤ ++ <25%)”, the “DP: anti-depressant” value was “++ (5% ≤ ++ <25%)” and the “MS: mood stabilizer” value was “+ (LOQ ≤ + <5%)”. The “PS: anti-psychotic” value was “++ (5% ≤ ++ <25%)”, the “SD: sedative hypnotic” value was “++ (5% ≤ ++ <25%)” and the “UN: uncharacterized CNS activity” value was “++ (5% ≤ ++ <25%)”.
In the case of `C[C@@H]1OCc2cccc(Cl)c2[C@@H]1N.Cl` [Example 80], the “AD: ADHD” value is reported as “+ (LOQ ≤ + <5%)”, the “AG: analgesic” value is reported as “++ (5% ≤ ++ <25%)” and the “AX: anxiolytic” value is reported as “+++ (25% ≤ +++ <50%)”. The “CE: cognitive enhancer” value was “+ (LOQ ≤ + <5%)”, the “DP: anti-depressant” value was “+ (LOQ ≤ + <5%)” and the “MS: mood stabilizer” value was “+ (LOQ ≤ + <5%)”. The “PS: anti-psychotic” value was “++ (5% ≤ ++ <25%)”, the “SD: sedative hypnotic” value was “++ (5% ≤ ++ <25%)” and the “UN: uncharacterized CNS activity” value was “+++ (25% ≤ +++ <50%)”.
`C[C@H]1OCc2cccc(Cl)c2[C@@H]1N.Cl` [Example 81] was tested, and the “AD: ADHD” value was “+ (LOQ ≤ + <5%)”, the “AG: analgesic” value was “++ (5% ≤ ++ <25%)” and the “AX: anxiolytic” value was “+++ (25% ≤ +++ <50%)”. For the same compound, the “CE: cognitive enhancer” value was “++ (5% ≤ ++ <25%)”, the “DP: anti-depressant” value was “++ (5% ≤ ++ <25%)” and the “MS: mood stabilizer” value was “+ (LOQ ≤ + <5%)”. For the same compound, the “PS: anti-psychotic” value was “++ (5% ≤ ++ <25%)”, the “SD: sedative hypnotic” value was “++ (5% ≤ ++ <25%)” and the “UN: uncharacterized CNS activity” value was “+++ (25% ≤ +++ <50%)”.
